Laboratory results as given in patent publication US20250295639A1, “METHODS FOR TREATING HEART DISEASES” (Cytokinetics, Incorporated, priority 2024, published 2025).
Where “and” joins values, the source holds several entries; their conditions need not be identical. Identical values can stand only once.

Experiments:
[1] = system: patients with symptomatic oHCM; experiment: SEQUOIA-HCM phase 3 trial: echocardiography (LVOT gradients, cardiac structure and function); type: in vivo, human; settings: for LA Volume Index / LV Ejection Fraction / LV Mass Index / LV Maximal Wall Thickness: Non-CMR Cohort N = 225 (Aficamten N = 117)
From the text: The following example describes a phase 3, multi-center, randomized, double-blind, placebo-controlled trial to evaluate the efficacy and safety of aficamten in adults with symptomatic hypertrophic cardiomyopathy and left ventricular outflow tract obstruction. This trial evaluated the effects of treatment with aficamten over a 24-week period on cardiopulmonary exercise capacity and health status in patients with symptomatic oHCM. This trial was intended to establish the efficacy and safety of aficamten with respect to improvements in exercise capacity and patient symptoms, as well as reduction in left ventricular outflow tract gradient (LVOT-G) in patients with oHCM.
This was a Phase 3 randomized, placebo-controlled, double-blind, multi-center trial in patients with symptomatic oHCM. Approximately 270 eligible patients were to be randomized in a 1:1 ratio to receive aficamten or placebo. Doses of 5, 10, 15, or 20 mg or matching placebo were administered in an escalating manner using echocardiography to guide dose titration. Randomization was stratified by use of beta blockers and CPET exercise modality.
The trial comprised three periods. The screening period was up to 6 weeks in duration. The double-blind placebo-controlled treatment period lasted 24 weeks. Following the final dose of aficamten, there was a 4-week safety follow-up period. Aficamten was administered orally once daily. During the initial six weeks of the treatment period, aficamten doses were individually titrated at Weeks 2, 4, and 6 using echocardiography. […] An echocardiogram was performed at each subsequent visit during the trial and the dose down-titrated if necessary. The primary endpoint of pVO2 was measured by CPET at screening and at end of treatment (Week 24). If applicable, patients continued taking background HCM medications consistent with regional clinical practice guidelines during the trial.
Echocardiography. Echocardiography was done during screening and prior to dosing on Day 1. Echocardiography was also performed 2 hours after dosing in the clinic on Weeks 2, 4, 6, 8, 12, 16, 20, 24, and 28.
Certified sonographers performed echocardiography using standard high-quality, high-fidelity machines. Whenever possible, the same sonographer performed all studies for a single patient. Echocardiograms were performed after the patient had been resting in a supine position for at least 10 minutes and in accordance with the echocardiography manual. Instructions for the performance of the Valsalva maneuver and imaging the LVOT-G were also included in the echocardiography manual.
Echocardiographic parameters measured at least included the left ventricular parameters (resting left ventricular outflow tract pressure gradient (LVOT-G), post-Valsalva LVOT-G, LVEF, LVFS, global longitudinal strain (GLS), left ventricular end diastolic diameter (LVEDD), left ventricular end diastolic volume (LVEDV), left ventricular end systolic diameter (LVESD), left ventricular end systolic volume (LVESV), left ventricular cardiac output (LVCO), LV Stroke Volume, LVOT velocity time integral (VTI), interventricular septum thickness (IVST), isovolumic contraction time (IVCT), IVRT, E/E, ratio (septal and lateral), and left atrial volume (LAV)) in addition to right heart function metrics detailed in the echocardiography protocol.
All echocardiograms (including unscheduled) were sent to the core laboratory for interpretation. On-site interpretation of LVEF and LVOT-G were used for dose escalation and reduction decisions via IWRS. The core laboratory quantification of the echocardiograms was used for all statistical analyses.
Baseline values are presented as mean±SD. Placebo corrected differences are presented as mean±95% CI and adjusted for treatment and stratification by beta-blockers and exercise mode (bicycle vs treadmill). […]

[2] = system: patients with symptomatic oHCM; experiment: SEQUOIA-HCM: eligibility for septal reduction therapy (SRT); type: in vivo, human; settings: aficamten (32 eligible at entry)
From the text: Eligibility for Septal Reduction Therapy (SRT). At study entry, 61 (22%) patients with oHCM were eligible for SRT based on guideline criteria (LV outflow gradient ≥50 mmHg at rest or Valsalva and NYHA class III or IV), of which 32 (23%) were assigned to aficamten and 29 (20%) to placebo. By week 12, 32 (100%) patients treated with aficamten were no longer guideline-eligible for SRT vs. 7 (24%) patients treated with placebo (P<0.001). At week 24, 28 (88%) patients treated with aficamten were no longer guideline-eligible for SRT vs. 15 (52%) on placebo (P<0.002).

[3] = Echo Measurements, Non-CMR Cohort N = 225, vs placebo
[4] = Treatment (Week 24), listed as Aficamten

CCc1nc(-c2ccc3c(c2)CC[C@H]3NC(=O)c2cnn(C)c2)no1 [aficamten, (R)—N-(5-(5-ethyl-1,2,4-oxadiazol-3-yl)-2,3-dihydro-1H-inden-1-yl)-1-methyl-1H-pyrazole-4-carboxamide]
patients of the SAM-resolution group reverting to baseline mitral valve SAM after washout ([1]; 50/61): 82%
patients with complete resolution of mitral valve SAM ([1]; 61/117, 24 weeks treatment): 52%
LA Volume Index ([1]; Echo Measurements, Baseline): 40 ± 13 mL/m^2
LV Ejection Fraction ([1]; Echo Measurements, Baseline): 74.8 ± 5.6%
LV Mass Index ([1]; Echo Measurements, Baseline): 131 ± 33 g/m^2
LV Maximal Wall Thickness ([1]; Echo Measurements, Baseline): 20.7 ± 3.0 mm
LA Volume Index ([1]; Echo Measurements, Week 24): 37 ± 11 mL/m^2
LV Ejection Fraction ([1]; Echo Measurements, Week 24): 67.8 ± 7.4%
LV Mass Index ([1]; Echo Measurements, Week 24): 126 ± 33 g/m^2
LV Maximal Wall Thickness ([1]; Echo Measurements, Week 24): 19.2 ± 3.2 mm
LA Volume Index, Treatment Effect [1, 3]: −5 mL/m^2
LV Ejection Fraction, Treatment Effect [1, 3]: −5.3%
LV Mass Index, Treatment Effect [1, 3]: −13 g/m^2
LV Maximal Wall Thickness, Treatment Effect [1, 3]: −1.2 mm
Inferolateral wall: placebo-corrected treatment difference (95% CI) ([1]; Treatment (Week 24)): −0.8 (−1.3, −0.3) mm
Interventricular septal wall: placebo-corrected treatment difference (95% CI) ([1]; Treatment (Week 24)): −1.0 (−1.6, −0.3) mm
LA volume index: placebo-corrected treatment difference (95% CI) ([1]; Treatment (Week 24)): −3.8 ml/m2
LA width: placebo-corrected treatment difference (95% CI) ([1]; Treatment (Week 24)): −2.7 (−3.8, −1.7) mm
LV Fractional Shortening: placebo-corrected treatment difference (95% CI) ([1]; Treatment (Week 24)): −4 (−7, −2) %
LV end diastolic dimension: placebo-corrected treatment difference (95% CI) ([1]; Treatment (Week 24)): −0.3 (−1.1, 0.5) mm
LV end diastolic volume index: placebo-corrected treatment difference (95% CI) ([1]; Treatment (Week 24)): −0.2 (−1.5, 1.2) ml/m2
LV end systolic dimension: placebo-corrected treatment difference (95% CI) ([1]; Treatment (Week 24)): +1.6 (0.7, 2.4) mm
LV end systolic volume index: placebo-corrected treatment difference (95% CI) ([1]; Treatment (Week 24)): +1.7 ml/m2
LV mass index: placebo-corrected treatment difference (95% CI) ([1]; Treatment (Week 24)): −12.2 (−18.0, −6.5) g/m2
LVOT Gradient, Valsalva: placebo-corrected treatment difference (95% CI) ([1]; Treatment (Week 24)): −50 mmHg
LVOT Gradient, rest: placebo-corrected treatment difference (95% CI) ([1]; Treatment (Week 24)): −40 mmHg
Lateral E/e′: placebo-corrected treatment difference (95% CI) ([1]; Treatment (Week 24)): −3.9
Lateral e′ velocity: placebo-corrected treatment difference (95% CI) ([1]; Treatment (Week 24)): +1.2 cm/s
Max wall thickness: placebo-corrected treatment difference (95% CI) ([1]; Treatment (Week 24)): −1.2 (−1.8, −0.6) mm
Peak A wave velocity: placebo-corrected treatment difference (95% CI) ([1]; Treatment (Week 24)): −2.4 (−6.3, 1.5) cm/s
Peak E wave velocity: placebo-corrected treatment difference (95% CI) ([1]; Treatment (Week 24)): −7.5 (−11.7, −3.2) cm/s
RV s′ velocity: placebo-corrected treatment difference (95% CI) ([1]; Treatment (Week 24)): −1.4(−2.0, −0.9) cm/s
Septal E/e′: placebo-corrected treatment difference (95% CI) ([1]; Treatment (Week 24)): −3.6
Septal e′ velocity: placebo-corrected treatment difference (95% CI) ([1]; Treatment (Week 24)): +0.5 cm/s
TAPSE: placebo-corrected treatment difference (95% CI) ([1]; Treatment (Week 24)): −2.1 (−3.2,−1.1) mm
LA volume index: placebo-corrected treatment difference (95% CI) [1, 4]: −3.8 (−5.5, −2.2) ml/m2
LV Ejection Fraction: placebo-corrected treatment difference (95% CI) [1, 4]: −4.8% and −5 (−6, −3) %
LV end systolic volume index: placebo-corrected treatment difference (95% CI) [1, 4]: +1.7 (1.0, 2.4) ml/m2
LV global circumferential strain (absolute): placebo-corrected treatment difference (95% CI) [1, 4]: −3.7% and −3.7 (−5.6, −1.8) %
LVOT Gradient, Valsalva: placebo-corrected treatment difference (95% CI) [1, 4]: −50 (−57, −44) mmHg
LVOT Gradient, rest: placebo-corrected treatment difference (95% CI) [1, 4]: −40 (−46, −34) mmHg
Lateral E/e′: placebo-corrected treatment difference (95% CI) [1, 4]: −3.9 (−5.0, −2.8)
Lateral e′ velocity: placebo-corrected treatment difference (95% CI) [1, 4]: 1.2 (0.7, 1.6) cm/s
Septal E/e′: placebo-corrected treatment difference (95% CI) [1, 4]: −3.6 (−4.8, −2.5)
Septal e′ velocity: placebo-corrected treatment difference (95% CI) [1, 4]: 0.5 (0.2, 0.8) cm/s
Inferolateral wall: placebo-corrected treatment difference (95% CI) ([1]; Washout (Week 28)): −0.2 (−0.8, 0.3) mm
Interventricular septal wall: placebo-corrected treatment difference (95% CI) ([1]; Washout (Week 28)): −0.3 (−1.0, 0.4) mm
LA volume index: placebo-corrected treatment difference (95% CI) ([1]; Washout (Week 28)): −3.0 (−4.9, −1.0) ml/m2
LA width: placebo-corrected treatment difference (95% CI) ([1]; Washout (Week 28)): −0.8 (−1.8, 0.3) mm
LV Ejection Fraction: placebo-corrected treatment difference (95% CI) ([1]; Washout (Week 28)): −1 (−2, 1) %
LV Fractional Shortening: placebo-corrected treatment difference (95% CI) ([1]; Washout (Week 28)): −1 (−3, 2) %
LV end diastolic dimension: placebo-corrected treatment difference (95% CI) ([1]; Washout (Week 28)): −0.7 (−1.6, 0.2) mm
LV end diastolic volume index: placebo-corrected treatment difference (95% CI) ([1]; Washout (Week 28)): −1.2 (−2.5, 0.1) ml/m2
LV end systolic dimension: placebo-corrected treatment difference (95% CI) ([1]; Washout (Week 28)): −0.2 (−1.1, 0.8) mm
LV end systolic volume index: placebo-corrected treatment difference (95% CI) ([1]; Washout (Week 28)): −0.1 (−0.7, 0.5) ml/m2
LV global circumferential strain (absolute): placebo-corrected treatment difference (95% CI) ([1]; Washout (Week 28)): −0.8 (−2.5, 0.9) %
LV global longitudinal strain (absolute): placebo-corrected treatment difference (95% CI) ([1]; Washout (Week 28)): −0.1 (−0.6, 0.5) %
LV mass index: placebo-corrected treatment difference (95% CI) ([1]; Washout (Week 28)): −3.7 (−10.2, 2.8) g/m2
LVOT Gradient, Valsalva: placebo-corrected treatment difference (95% CI) ([1]; Washout (Week 28)): −1 (−8, 6) mmHg
LVOT Gradient, rest: placebo-corrected treatment difference (95% CI) ([1]; Washout (Week 28)): −1 (−6, 7) mmHg
Lateral E/e′: placebo-corrected treatment difference (95% CI) ([1]; Washout (Week 28)): −0.2 (−1.6, 1.2)
Lateral e′ velocity: placebo-corrected treatment difference (95% CI) ([1]; Washout (Week 28)): −0.2 (−0.6, 0.3) cm/s
Peak A wave velocity: placebo-corrected treatment difference (95% CI) ([1]; Washout (Week 28)): 3.2 (−0.5, 6.9) cm/s
Peak E wave velocity: placebo-corrected treatment difference (95% CI) ([1]; Washout (Week 28)): −1.6 (−5.8, 2.7) cm/s
RV s′ velocity: placebo-corrected treatment difference (95% CI) ([1]; Washout (Week 28)): +0.3 (−0.2, 0.9) cm/s
Septal E/e′: placebo-corrected treatment difference (95% CI) ([1]; Washout (Week 28)): −0.6 (−1.7, 0.6)
Septal e′ velocity: placebo-corrected treatment difference (95% CI) ([1]; Washout (Week 28)): −0.0 (−0.3, 0.2) cm/s
TAPSE: placebo-corrected treatment difference (95% CI) ([1]; Washout (Week 28)): +0.8 (−0.3, 1.9) mm
rest LV outflow tract gradient on treatment ([1]; end of treatment period, from 55±27 at baseline): 20±17 mmHg
Valsalva LV outflow tract gradient on treatment ([1]; end of treatment period, from 83±32 at baseline): 35±25 mmHg
reduction of Valsalva LVOT gradient compared to baseline ([1]; week 2): 25%
reduction of rest LVOT gradient compared to baseline ([1]; week 2): 31%
SRT-eligible patients no longer guideline-eligible for SRT ([2]; week 12): 100%
SRT-eligible patients no longer guideline-eligible for SRT ([2]; week 24): 88%
